Laboratory results: patent publication US20040167033A1, “Herbicidal composition” (priority 2001, published 2004)

Tested on: maize
Assay: Pre-emergence test (Example B2), greenhouse pots, phytotoxicity on maize
Assay type: in vivo
Protocol: The test plants are sown in pots under greenhouse conditions. A standard soil is used as cultivation substrate. At a pre-emergence stage, the herbicides, both on their own and in admixture with safener, are applied to the soil surface or to cultivated plants seed-dressed with safener. The rates of application depend on the optimum doses ascertained under field conditions or greenhouse conditions. The tests are evaluated after from 2 to 4 weeks (100% action=complete destruction, 0% action=no phytotoxic action). The mixtures used in this test show good results.

## CCc1cccc(C)c1N(C(=O)CCl)[C@@H](C)COC [S-metolachlor]
Table B2.1, S-metolachlor 1000 g/ha (EC 960), safener of formula II row prints 1000 g/ha
  Phytotoxicity on maize (%) 15 days after application: 7%
Table B2.1, S-metolachlor 2000 g/ha (EC 960), safener of formula II row prints 2000 g/ha
  Phytotoxicity on maize (%) 15 days after application: 20%
Table B2.1, S-metolachlor 4000 g/ha (EC 960), safener of formula II row prints 4000 g/ha
  Phytotoxicity on maize (%) 15 days after application: 40%
Table B2.1, S-metolachlor 6000 g/ha (EC 960), safener of formula II row prints 6000 g/ha, 100%=complete destruction
  Phytotoxicity on maize (%) 15 days after application: 53%
